Consider three molecules from patent publication US5955497A, “Bioactive acetogenins” (Purdue Research Foundation, priority 1998, dated 1999).

Data set [1] deals with PC-3 (human prostate adenocarcinoma). Put plainly: seven-day in vitro cytotoxicity, PC-3. It counts as cell-based. Conditions: for activity relative to the positive control adriamycin: PC-3, versus adriamycin; for selectivity for the prostate cell line (PC-3): PC-3, versus other cell lines of Table 1. The procedure: (§1) The cytotoxicities of squamotacin, molvizarin and bullatacin were evaluated, in the same run, against a panel of six cell lines (Table 1). Adriamycin was included as a standard. The relative cytotoxicity of the compounds to non-tumor cells was determined based on the brine shrimp lethality assay (BSA). The panel of tumor cell lines tested includes human lung carcinoma (A-549), human breast carcinoma (MCF-7), human colon adenocarcinoma (HT-29), human renal carcinoma (A-498), human prostate adenocarcinoma (PC-3) and human pancreatic carcinoma (PACA-2).
(§2) The brine shrimp (Artemia salina Leach) test (BST) was performed as modified to determine LC50 values in μg/ml. Zhao et al., Phytochemistry, 33, p. 1065 (1993). Seven-day in vitro cytotoxicity tests against human tumor cell lines were carried out at the Purdue Cancer Center, using standard protocols for A-549 (human lung carcinoma), MCF-7 (human breast carcinoma) and HT-29 (human colon carcinoma), human renal carcinoma (A-498), human prostate adenocarcinoma (PC-3) and human pancreatic carcinoma (PACA-2) with adriamycin as a positive control. The reported ED50 values in μg/ml (Table 1) were tabulated from the same run, except where noted, in order to facilitate comparison for the SAR's.

Data set [2] has as its system panel of six cell lines (A-549, MCF-7, HT-29, A-498, PC-3, PACA-2). Put plainly: cytotoxicity against the panel of six human tumor cell lines. It counts as cell-based. Conditions: for spectra of cytotoxic selectivities, squamotacin versus molvizarin: Table 1. On the procedure: as §1, §2
Data set [3] concerns A2780 human ovarian cancer xenografts. Conditions: 50 μg/kg, athymic mice bearing A2780 human ovarian cancer xenografts; cited from earlier work. (In general: Xenograft models place foreign cells or tissue in a host animal.)
The nature of the next data set: in vivo. On the set-up: species or system Artemia salina Leach (brine shrimp). Conditions: brine shrimp larvae, read-out: BST LC30. On the procedure:
as §1, §2

Converted amounts (≈) assume the structure as drawn. “Also recorded” adds a separate entry of the source.

For `CCCCCCCCCC[C@H](O)[C@H]1CC[C@H]([C@H]2CC[C@H]([C@H](O)CCCCCCCC[C@@H](O)CC3=C[C@H](C)OC3=O)O2)O1` [Compound 2, molvizarin], in data set [1], the “activity relative to the positive control adriamycin” value is “over 100 million” and the “selectivity for the prostate cell line (PC-3)” value is given as “high selectively for the prostate cell line (PC-3); also recorded: showed selectivity for PC-3; also recorded: high selectivity”. For the same molecule, the “spectra of cytotoxic selectivities, squamotacin versus molvizarin” value in data set [2] is on record as “quite similar”.
`CCCCCCCCCC[C@H](O)[C@H]1CC[C@H]([C@H]2CC[C@H]([C@H](O)CCCCCCCCCC[C@@H](O)CC3=C[C@H](C)OC3=O)O2)O1` [Compound 3, bullatacin]: in data set [3], the “tumor growth inhibition (TGI)” value is given as 67%.
For the molecule `CCCCCCCCCCCC[C@H](O)[C@H]1CC[C@H]([C@H]2CC[C@H]([C@H](O)CCCCCCCC[C@@H](O)CC3=C[C@H](C)OC3=O)O2)O1` [Compound 1, squamotacin], in “in vivo”, the LC50 stood at 6.8 ng/mL (≈ 0.0109 µM). Besides, in data set [1], the “activity relative to the positive control adriamycin” value is recorded as “over 100 million” and the “selectivity for the prostate cell line (PC-3)” value is reported as “high selectively for the prostate cell line (PC-3); also recorded: high selectivity”. Also, the “spectra of cytotoxic selectivities, squamotacin versus molvizarin” value in data set [2] is “quite similar”. The “activity relative to bullatacin in the cell panel” value in data set [2] (six cell lines, versus bullatacin) is “less activity than bullatacin in five of the six cell lines tested, with HT-29 (colon) being the exception”.
